Experimental data: ChEMBL document CHEMBL1255415, “In vitro activity of penem-1 in combination with beta-lactams against blaKPC-possessing Klebsiella pneumoniae isolates” (2010)
In brackets after ≈: the same amount, converted by molar mass. Activity calls are given as the source filed them. The rule behind the calls is not given here.

Assays:
Klebsiella pneumoniae [1] = assay: Antimicrobial activity against blaKPC-possessing Klebsiella pneumoniae isolates by agar dilution method; format: functional
Klebsiella pneumoniae [2] = assay: Antimicrobial activity against blaKPC-possessing Klebsiella pneumoniae isolates in presence of 4 ug/ml by agar dilution method; format: functional
Klebsiella pneumoniae [3] = assay: Inhibition of Beta-lactamase KPC-2 in Klebsiella pneumoniae isolates assessed as reduction in antimicrobial MIC of beta-lactams by agar dilution method relative to untreated control
Klebsiella pneumoniae [4] = assay: Antimicrobial activity against blaKPC-possessing Klebsiella pneumoniae isolates assessed as susceptible isolates by agar dilution method; format: functional
Klebsiella pneumoniae [5] = assay: Antimicrobial activity against blaKPC-possessing Klebsiella pneumoniae isolates assessed as susceptible isolates in presence of 4 ug/ml by agar dilution method; format: functional

SMILES | MIC50 (Klebsiella pneumoniae [1]) [µg/mL] | MIC90 (Klebsiella pneumoniae [1]) [µg/mL] | MIC50 (Klebsiella pneumoniae [2]) [µg/mL] | MIC90 (Klebsiella pneumoniae [2]) [µg/mL] | inhibition (Klebsiella pneumoniae [3]) | Activity (Klebsiella pneumoniae [4]) [%] | Activity (Klebsiella pneumoniae [5]) [%] | Reduction in beta-lactam MIC (qualitative call) (Klebsiella pneumoniae [3])
C[C@H]1[C@H](NC(=O)/C(=N\OC(C)(C)C(=O)O)c2csc(N)n2)C(=O)N1S(=O)(=O)O [AZTREONAM] | ≥ 512 | ≥ 512 | 16 | 128 | Active | 0 | 14.3 | 
CO/N=C(\C(=O)N[C@@H]1C(=O)N2C(C(=O)[O-])=C(C[N+]3(C)CCCC3)CS[C@H]12)c1csc(N)n1 [CEFEPIME] | 32 (≈ 66.6 µM) | 128 (≈ 266 µM) | 2 | 16 |  | 7.1 | 88.1 | Active
CO/N=C(\C(=O)N[C@@H]1C(=O)N2C(C(=O)O)=C(COC(C)=O)CS[C@H]12)c1csc(N)n1 [CEFOTAXIME] | 64 (≈ 141 µM) | ≥ 512 | 2 | 4 |  | 0 | 38.1 | Active
CCN1CCN(C(=O)N[C@@H](C(=O)N[C@@H]2C(=O)N3[C@@H]2SC(C)(C)[C@@H]3C(=O)O)c2ccccc2)C(=O)C1=O [PIPERACILLIN] | ≥ 512 | ≥ 512 | 64 | 128 |  | 0 | 16.7 | Active
